Tests used:
Assay in all cases: combination Emax (second highest fraction inhibited in the dose matrix, 72 h); higher = more inhibition; extreme values may be limits of the assay
[1] = system: SU-DHL-8 (B-Cell Non-Hodgkin's Lymphoma)
Summary of the method: (§1)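 Cell lines in DMEM/F12 or RPMI with 10% FBS were plated in 1536-well plates, held 24 hours at 37°C, 5% CO2, then given two-drug dose matrices for 72 hours (DMSO typically 0.2%). Viability was read by CellTiter-Glo 2.0 luminescence and scaled as inhibition from 0 (vehicle wells) to 1 (blank wells). Combination Emax is the second-highest inhibition in the matrix; Bliss excess is observed combination effect minus expected EA + EB − EA·EB, EA and EB being single-agent effects.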

[2] = system: CAMA-1 (Breast Carcinoma)
Summary of the method: as §1

TC-71 (Ewing's Sarcoma) = system: TC-71 (Ewing's Sarcoma)
Summary of the method: as §1

[3] = system: TE-6 (Esophageal Squamous Cell Carcinoma)
Summary of the method: as §1

[4] = system: MOLT-16 (T-Lymphoblastic Leukemia)
Summary of the method: as §1

[5] = system: MKN28 (Gastric Carcinoma)
Summary of the method: as §1

NCI-H2818 (Mesothelioma) = system: NCI-H2818 (Mesothelioma)
Summary of the method: as §1

[6] = system: DiFi (Colorectal Carcinoma)
Summary of the method: as §1

[7] = system: TOV-112D (Ovarian Carcinoma)
Summary of the method: as §1

WM-115 (Melanoma) = system: WM-115 (Melanoma)
Summary of the method: as §1

[8] = system: MFM-223 (Breast Carcinoma)
Summary of the method: as §1

[9] = system: L-540 (Hodgkin's Lymphoma)
Summary of the method: as §1

[10] = system: BFTC-905 (Bladder Carcinoma)
Summary of the method: as §1

[11] = system: MS751 (Cervical Carcinoma)
Summary of the method: as §1

[12] = system: HL-60 (Acute Myeloid Leukemia)
Summary of the method: as §1

WIL2-NS (Non-Cancerous) = system: WIL2-NS (Non-Cancerous)
Summary of the method: as §1

[13] = system: DND-41 (T-Lymphoblastic Leukemia)
Summary of the method: as §1

[14] = system: KYSE-180 (Esophageal Squamous Cell Carcinoma)
Summary of the method: as §1

[15] = system: SW837 (Colorectal Carcinoma)
Summary of the method: as §1

[16] = system: EVSA-T (Breast Carcinoma)
Summary of the method: as §1

SMILES	combination Emax [1]	combination Emax [2]	combination Emax (TC-71 (Ewing's Sarcoma))	combination Emax [3]	combination Emax [4]	combination Emax [5]	combination Emax (NCI-H2818 (Mesothelioma))	combination Emax [6]	combination Emax [7]	combination Emax (WM-115 (Melanoma))	combination Emax [8]	combination Emax [9]	combination Emax [10]	combination Emax [11]	combination Emax [12]	combination Emax (WIL2-NS (Non-Cancerous))	combination Emax [13]	combination Emax [14]	combination Emax [15]	combination Emax [16]
C=CCn1c(=O)c2cnc(Nc3ccc(N4CCN(C)CC4)cc3)nc2n1-c1cccc(C(C)(C)O)n1 [AZD1775] + C[C@@H]1COCCN1C2=NC(=NC(=C2)C3(CC3)[S@](=N)(=O)C)C4=C5C=CNC5=NC=C4 [AZD6738] (first compound max 1 µM, partner max 10 µM)	0.903	0.46	0.941	0.669	1	0.695	0.475	0.895	0.764	0.595	0.897	0.941	0.964	0.428	0.893	1	0.929	0.939	0.636	0.483
C=CCn1c(=O)c2cnc(Nc3ccc(N4CCN(C)CC4)cc3)nc2n1-c1cccc(C(C)(C)O)n1 [AZD1775] + O=C(c1cc(Cc2n[nH]c(=O)c3ccccc23)ccc1F)N1CCN(C(=O)C2CC2)CC1 [Olaparib] (first compound max 1 µM, partner max 10 µM)	0.877	0.149	0.583	0.319	1	0.573	0.415	0.678	0.427	0.259	0.56	0.946	0.55	0.215	0.36	0.931	0.878	0.774	0.39	0.289
CCN(CCO)CCCOc1ccc2c(Nc3cc(CC(=O)Nc4cccc(F)c4)[nH]n3)ncnc2c1 [AZD2811] + C=CCn1c(=O)c2cnc(Nc3ccc(N4CCN(C)CC4)cc3)nc2n1-c1cccc(C(C)(C)O)n1 [AZD1775] (first compound max 1 µM, partner max 1 µM)	0.929	0.171	0.857	0.236	1	0.5	0.276	0.671	0.712	0.193	0.56	0.916	0.531	0.599	0.845	0.944	0.902	0.726	0.15	0.257
CCN(CCO)CCCOc1ccc2c(Nc3cc(CC(=O)Nc4cccc(F)c4)[nH]n3)ncnc2c1 [AZD2811] + C[C@@H]1COCCN1C2=NC(=NC(=C2)C3(CC3)[S@](=N)(=O)C)C4=C5C=CNC5=NC=C4 [AZD6738] (first compound max 1 µM, 7x7, partner max 10 µM)	0.918	0.304	0.94	0.543	1	0.519	0.405	0.819	0.707	0.523	0.8	0.921	0.838	0.492	0.899	0.979	0.908	0.823	0.361	0.289
CCN(CCO)CCCOc1ccc2c(Nc3cc(CC(=O)Nc4cccc(F)c4)[nH]n3)ncnc2c1 [AZD2811] + O=C(c1cc(Cc2n[nH]c(=O)c3ccccc23)ccc1F)N1CCN(C(=O)C2CC2)CC1 [Olaparib] (first compound max 1 µM, 7x7, partner max 10 µM)	0.738	0.206	0.755	0.212	1	0.238	0.234	0.516	0.394	0.259	0.274	0.509	0.502	0.243	0.83	0.397	0.369	0.176	0.183	0.31
CN(CCO)CC[C@H](CSc1ccccc1)Nc1ccc(S(=O)(=O)NC(=O)c2ccc(N3CCC([C@@H](O)c4ccccc4-c4ccc(Cl)cc4)CC3)cc2)cc1S(=O)(=O)C(F)(F)F [AZD4320] + C=CCn1c(=O)c2cnc(Nc3ccc(N4CCN(C)CC4)cc3)nc2n1-c1cccc(C(C)(C)O)n1 [AZD1775] (first compound max 1 µM, partner max 1 µM)	1	0.182	0.926	0.556	1	0.536	0.371	0.944	0.496	0.507	0.383	0.979	0.759	0.262	0.956	0.973	1	0.783	0.461	0.191

— the supplement of paper PMC11061612
